Test results reported in patent US20080119471A1, “Piperazine urea derivatives for the treatment of endometriosis” (priority 2004, published 2008).

B1: MIP-1β: human chemokine that binds human CCR1 with low affinity (protein, UniProt P13236 24-92, looked up)
C-C motif chemokine 4: APMGSDPPTACCFSYTARKLPRNFVVDYYETSSLCSQPAVVFQTKRSKQVCADPSESWVQEYVYDLELN

Molecular target: T1, human CCR1 (Homo sapiens, UniProt P32246)
T1 sequence (P32246 1-355): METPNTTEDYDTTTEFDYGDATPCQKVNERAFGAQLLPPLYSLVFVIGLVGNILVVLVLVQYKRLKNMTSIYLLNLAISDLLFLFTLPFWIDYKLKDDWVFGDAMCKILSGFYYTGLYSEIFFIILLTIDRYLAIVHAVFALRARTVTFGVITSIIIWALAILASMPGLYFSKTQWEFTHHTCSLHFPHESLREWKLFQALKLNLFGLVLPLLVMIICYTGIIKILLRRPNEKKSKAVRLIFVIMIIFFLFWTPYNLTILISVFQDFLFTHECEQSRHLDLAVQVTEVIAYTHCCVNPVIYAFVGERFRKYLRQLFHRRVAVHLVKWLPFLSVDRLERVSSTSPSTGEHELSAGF
Assay: not given
Conditions: result in words; cited from earlier work

Molecule | signalling through human CCR1
MCP-1: human chemokine that binds human CCR1 with low affinity; a ligand for CCR2 | neither ligand is able to signal
B1 | neither ligand is able to signal

Molecular target: T1, human CCR1
Assay: In vitro assay for CCR1 receptor antagonists: competition with 125I-MIP-1α or 125I-RANTES on 293MR cells
Type: binding
Set-up: expressed in transfected cells
Conditions: Table 2
Method: Human CCR1 cDNA was provided through collaboration with Dr. Stephen Peiper of the University of Louisville, Ky. […] The plasmid also contained hygromycin and puromycin resistance genes. Calcium phosphate transfection standard protocols were used to insert the plasmid into the HEK293 cells. Cells were selected for stable expression of CCR1 using hygromycin and puromycin selection.
• 130 mM NaCl, 5 mM KCl, 1 mM MnCl2, 50 mM Tris, 30 μg/ml bacitracin, 0.1% BSA, pH 7.4.
The stock solution of the compounds was 1 mM in 100% DMSO. […] A serial 1:3 dilution from the highest concentration was made with assay buffer. Six concentrations of each compound were usually being screened to generate a dose curve from which the Ki value was determined.
Assays were performed in 96-well v-bottom microtiter plates in a total volume of 100 μl. […] The cells were washed once in PBS and resuspended in the assay buffer to about 1.1×10^5 cells/mL.
The radioactivities in each well were determined by scintillation counting following addition of 50 μl of scintillation fluid.
The nonspecific binding was defined by the binding in the presence of 100 nM of unlabeled MIP-1α or RANTES.
The dose curves of each compound with 6 concentration points were generated and IC50 values were determined by fitting the data to the log-logit equation (linear) with an EXCEL spread-sheet.

Molecule | Ki [nM]
CCN(C)C(C)c1cc(Cl)ccc1OCC(=O)N1C[C@@H](C)N(Cc2ccc(F)cc2)C[C@@H]1C (stereo partly drawn) [compound 28] | 18
CCCC(=O)Nc1cc(Cl)ccc1OCC(=O)N1C[C@@H](C)N(Cc2ccc(F)cc2)C[C@@H]1C [compound 20] | 7
CC(=O)Nc1cc(Cl)ccc1OCC(=O)N1CCN(Cc2ccc(F)cc2)CC1C (stereo not drawn) [compound 19] | 5
CC1CN(Cc2ccc(F)cc2)CCN1C(=O)COc1ccc(Cl)c([N+](=O)[O-])c1 (stereo not drawn) [compound 16] | 21
C=CC(O)CC1CN(Cc2ccc(F)cc2)CCN1C(=O)COc1ccc(Cl)cc1 (stereo not drawn) [compound 36] | 172
C[C@@H]1CN(C(=O)CC(CN)c2ccc(Cl)cc2)[C@@H](C)CN1Cc1ccc(F)cc1 (stereo partly drawn) [compound 41] | 56
CC(=O)NCC(CC(=O)N1C[C@@H](C)N(Cc2ccc(F)cc2)C[C@@H]1C)c1ccc(Cl)cc1 (stereo partly drawn) [compound 42] | 26
CCCC(C)Nc1cc(Cl)ccc1OCC(=O)N1C[C@@H](C)N(Cc2ccc(F)cc2)C[C@@H]1C (stereo partly drawn) [compound 18] | 87
CCC1CN(Cc2ccc(F)cc2)CCN1C(=O)COc1ccc(Cl)cc1 (stereo not drawn) [compound 44] | 15
C[C@@H]1CN(Cc2ccc(F)cc2)[C@@H](CC#N)CN1C(=O)COc1ccc(Cl)cc1 [compound 48] | 38
C[C@@H]1CN(C(=O)COc2ccc(Cl)cc2NS(C)(=O)=O)[C@@H](C)CN1Cc1ccc(F)cc1 [compound 24] | 6
C[C@@H]1CN(C(=O)COc2ccc(Cl)cc2NCc2ccccc2)[C@@H](C)CN1Cc1ccc(F)cc1 [compound 17] | 42
C[C@@H]1CN(C(=O)COc2ccc3ccc(=O)oc3c2)[C@@H](C)CN1Cc1ccc(F)cc1 [compound 39] | 18
O=C(COc1ccc(Cl)cc1)N1CCN(Cc2ccc(F)cc2)C(C(F)(F)F)C1 (stereo not drawn) [compound 37] | 148
CC(=O)Nc1ccccc1OCC(=O)N1CCN(Cc2ccc(F)cc2)CC1C (stereo not drawn) [compound 31] | 106
CC(c1cc(Cl)ccc1OCC(=O)N1C[C@@H](C)N(Cc2ccc(F)cc2)C[C@@H]1C)n1ccnc1 (stereo partly drawn) [compound 29] | 6
Cc1cc(O)cc(OCC(=O)N2C[C@H](C)N(Cc3ccc(F)cc3)C[C@H]2C)c1 [compound 33] | 5

Molecule | Ki [nM]
C[C@@H]1CN(C(=O)COc2ccc(Cl)cc2NC(=O)CNC(N)=O)[C@@H](C)CN1Cc1ccc(F)cc1 [compound 27] | 2
CCC[C@@H]1CN(Cc2ccc(F)cc2)CCN1C(=O)COc1ccc(Cl)cc1 [compound 45] | 75
CC1CN(C(=O)COc2ccc(Cl)cc2N)C(C)CN1Cc1ccc(F)cc1 (stereo not drawn) [compound 15] | 9
C[C@@H]1CN(C(=O)COc2cccc(C#N)c2)[C@@H](C)CN1Cc1ccc(F)cc1 [compound 32] | 68
C[C@@H]1CN(C(=O)CC(NS(C)(=O)=O)c2ccc(Cl)cc2)[C@@H](C)CN1Cc1ccc(F)cc1 (stereo partly drawn) [compound 43] | 32
CC(O)C1CN(Cc2ccc(F)cc2)CCN1C(=O)COc1ccc(Cl)cc1 (stereo not drawn) [compound 35] | 13
C[C@@H]1CN(C(=O)COc2ccc(Cl)cc2C(=O)NCCN)[C@@H](C)CN1Cc1ccc(F)cc1 [compound 30] | 9
O=C(COc1ccc(Cl)cc1)N1CCN(Cc2ccc(F)cc2)CC12CC2 [compound 46] | 74
COC(=O)CCC(=O)Nc1cc(Cl)ccc1OCC(=O)N1C[C@@H](C)N(Cc2ccc(F)cc2)C[C@@H]1C [compound 23] | 5
COC(=O)c1ccc(OC)cc1OCC(=O)N1C[C@@H](C)N(Cc2ccc(F)cc2)C[C@@H]1C [compound 34] | 31
C[C@@H]1CN(C(=O)COc2ccc(Cl)cc2NC(=O)CN)[C@@H](C)CN1Cc1ccc(F)cc1 [compound 26] | 1
C[C@@H]1CN(Cc2ccc(F)cc2)[C@@H](CN2CCOCC2)CN1C(=O)COc1ccc(Cl)cc1 [compound 49] | 109
C[C@@H]1CN(C(=O)COc2ccc(Cl)cc2C(N)=O)[C@@H](C)CN1Cc1ccc(F)cc1 [compound 47] | 3
C[C@@H]1CN(C(=O)COc2ccc(Cl)cc2CNC(N)=O)[C@@H](C)CN1Cc1ccc(F)cc1 [compound 14] | 2
CC(C)C(=O)Nc1cc(Cl)ccc1OCC(=O)N1C[C@@H](C)N(Cc2ccc(F)cc2)C[C@@H]1C [compound 21] | 13
COCC(=O)Nc1cc(Cl)ccc1OCC(=O)N1C[C@@H](C)N(Cc2ccc(F)cc2)C[C@@H]1C [compound 22] | 3
C[C@@H]1CN(C(=O)COc2ccc(Cl)cc2N2C(=O)c3ccccc3C2=O)[C@@H](C)CN1Cc1ccc(F)cc1 [compound 40] | 64
